Measured values published in ChEMBL document CHEMBL5584335, “Investigating Active Site Binding of Ligands to High and Low Activity Carbonic Anhydrase Enzymes Using Native Mass Spectrometry” (J Med Chem, 2024).
Activity calls are given as the source filed them. No cut-off for these calls is given here.

Target: T1, Carbonic anhydrase 3 (Homo sapiens, UniProt P07451)
Assay: Binding affinity to human recombinant CA III assessed as inhibition constant

T1 sequence (P07451 whole entry): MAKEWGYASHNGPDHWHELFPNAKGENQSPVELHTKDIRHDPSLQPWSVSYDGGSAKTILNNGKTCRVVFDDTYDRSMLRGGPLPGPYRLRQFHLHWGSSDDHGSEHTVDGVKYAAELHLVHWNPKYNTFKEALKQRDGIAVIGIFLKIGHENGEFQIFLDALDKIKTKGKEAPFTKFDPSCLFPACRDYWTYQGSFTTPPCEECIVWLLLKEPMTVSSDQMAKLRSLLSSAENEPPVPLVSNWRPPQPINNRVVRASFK

SMILES	Ki
CCCCNc1cc(C(=O)O)cc(S(N)(=O)=O)c1Oc1ccccc1 [BUMETANIDE]	3400 µM
NS(=O)(=O)c1cc2c(cc1Cl)NCNS2(=O)=O [HYDROCHLOROTHIAZIDE]	790 µM
Cc1ccccc1N1C(=O)c2cc(S(N)(=O)=O)c(Cl)cc2NC1C (stereo unspecified) [METOLAZONE]	610 µM

Target: T1, Carbonic anhydrase 3
Assay: Binding affinity to human recombinant CA III active site expressed in Escherichia coli BL21 (DE3) pLysS cells at 18.18 uM at protein:compound ratio of 1:2 incubated for 30 mins by native mass spectrometry analysis

SMILES	Activity
CC1Cc2ccccc2N1NC(=O)c1ccc(Cl)c(S(N)(=O)=O)c1 (stereo unspecified)	inactive
Cc1ccc(-c2cc(C(F)(F)F)nn2-c2ccc(S(N)(=O)=O)cc2)cc1	inactive
Cc1onc(-c2ccccc2)c1-c1ccc(S(N)(=O)=O)cc1	inactive
NS(=O)(=O)c1cc(C(=O)O)c(NCc2ccco2)cc1Cl	inactive
NS(=O)(=O)c1ccc(N2CCCCS2(=O)=O)cc1	inactive
CCCCNc1cc(C(=O)O)cc(S(N)(=O)=O)c1Oc1ccccc1 [BUMETANIDE]	inactive
NS(=O)(=O)c1cc2c(cc1Cl)NCNS2(=O)=O [HYDROCHLOROTHIAZIDE]	inactive
Cc1ccccc1N1C(=O)c2cc(S(N)(=O)=O)c(Cl)cc2NC1C (stereo unspecified) [METOLAZONE]	inactive
